Source: patent US7074789B2, “Kinase inhibitors” (Amgen Inc., priority 1999, dated 2006)

What was measured:
Assay type in all cases: biochemical
ErbB2 = biological target: T1, ErbB2 (Homo sapiens, UniProt P04626); experiment: Kinase inhibition assay (33P transfer), ErbB2; details: read-out: ErbB2-2
T1 construct: Kinases are expressed as either kinase domains or full length constructs; made in house
Procedure, shortened: (§1)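 IC50: inhibitor concentration lowering 33P incorporation into immobilised substrate by 50%. Label transferred from ATP to poly(Glu,Tyr) 4:1 or poly(Arg,Ser) 3:1 is measured after a 0.5% phosphoric acid wash by liquid scintillation.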

Zap-70 = biological target: T2, Zap-70 (Homo sapiens, UniProt P43403); experiment: Kinase inhibition assay (33P transfer), Zap-70; details: Table 3; read-out: Zap-1
T2 construct: Kinases are expressed as either kinase domains or full length constructs; made in house
T2 sequence (P43403 1-619): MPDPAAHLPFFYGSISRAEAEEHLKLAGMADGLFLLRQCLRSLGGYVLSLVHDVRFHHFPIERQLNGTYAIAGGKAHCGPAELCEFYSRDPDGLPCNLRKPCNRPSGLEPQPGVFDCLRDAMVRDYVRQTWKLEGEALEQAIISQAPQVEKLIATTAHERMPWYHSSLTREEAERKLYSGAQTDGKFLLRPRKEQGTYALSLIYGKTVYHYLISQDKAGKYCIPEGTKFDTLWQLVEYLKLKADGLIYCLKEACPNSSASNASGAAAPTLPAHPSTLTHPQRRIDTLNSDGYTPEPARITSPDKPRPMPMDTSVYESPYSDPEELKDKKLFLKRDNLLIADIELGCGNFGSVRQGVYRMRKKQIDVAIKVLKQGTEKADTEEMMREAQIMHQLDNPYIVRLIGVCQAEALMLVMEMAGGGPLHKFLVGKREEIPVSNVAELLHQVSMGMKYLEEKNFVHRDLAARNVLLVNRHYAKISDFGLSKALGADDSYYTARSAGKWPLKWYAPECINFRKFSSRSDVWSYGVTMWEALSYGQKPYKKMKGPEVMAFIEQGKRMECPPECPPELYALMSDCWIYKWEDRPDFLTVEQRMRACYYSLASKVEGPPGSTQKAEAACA
Procedure, shortened: (§2)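 Radiometric readout: 33P incorporated into surface-bound poly(Glu,Tyr) 4:1 or poly(Arg,Ser) 3:1 is counted by liquid scintillation after a 0.5% phosphoric acid wash. Enzymes were GST or polyHis fusions (kinase domain or full length) from E. coli or High Five insect cells.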

Itk = biological target: T3, Itk (Homo sapiens, UniProt Q08881); experiment: Kinase inhibition assay (33P transfer), Itk; details: Table 3; read-out: Itk-1
T3 construct: Kinases are expressed as either kinase domains or full length constructs; made in house
T3 sequence (Q08881 1-620): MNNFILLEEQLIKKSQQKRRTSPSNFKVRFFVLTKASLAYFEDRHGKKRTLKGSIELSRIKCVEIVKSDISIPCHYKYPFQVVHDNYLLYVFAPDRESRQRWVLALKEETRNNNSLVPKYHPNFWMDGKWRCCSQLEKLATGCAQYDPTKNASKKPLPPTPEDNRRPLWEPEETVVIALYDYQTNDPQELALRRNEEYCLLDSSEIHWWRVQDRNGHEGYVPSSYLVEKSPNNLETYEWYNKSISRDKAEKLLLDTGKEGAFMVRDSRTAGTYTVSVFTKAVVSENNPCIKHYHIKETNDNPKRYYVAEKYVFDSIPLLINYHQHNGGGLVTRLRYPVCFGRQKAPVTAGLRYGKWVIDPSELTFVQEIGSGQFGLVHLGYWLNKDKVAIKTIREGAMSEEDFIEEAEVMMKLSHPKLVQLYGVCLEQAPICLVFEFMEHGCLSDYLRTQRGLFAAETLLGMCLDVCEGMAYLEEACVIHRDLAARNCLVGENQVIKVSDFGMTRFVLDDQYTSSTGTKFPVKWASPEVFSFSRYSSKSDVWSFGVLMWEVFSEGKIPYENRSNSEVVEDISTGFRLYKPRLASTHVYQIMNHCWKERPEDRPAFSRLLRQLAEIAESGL
Procedure, shortened: as §1

ErbB4 = biological target: T4, ErbB4 (Homo sapiens, UniProt Q15303); experiment: Kinase inhibition assay (33P transfer), ErbB4; details: read-out: ErbB4-1
T4 construct: Kinases are expressed as either kinase domains or full length constructs; made in house

Ret-1 = biological target: T5, Ret-1 (Homo sapiens, UniProt P07949); experiment: Kinase inhibition assay (33P transfer), Ret; details: Table 6, Ret-1 kinase inhibition class
T5 construct: Kinases are expressed as either kinase domains or full length constructs; made in house

IGFR-1 = biological target: T6, IGFR-1 (Homo sapiens, UniProt P08069); experiment: Kinase inhibition assay (33P transfer), IGFR-1; details: Table 2, kinase inhibition class
T6 construct: Kinases are expressed as either kinase domains or full length constructs; made in house

Kdr = biological target: T7, Kdr (Homo sapiens, UniProt P35968); experiment: Kinase inhibition assay (33P transfer), Kdr; details: Table 3; read-out: KDR-1
T7 construct: Kinases are expressed as either kinase domains or full length constructs; made in house
Procedure, shortened: as §2

Fyn = biological target: T8, Fyn (Homo sapiens, UniProt P06241); experiment: Kinase inhibition assay (33P transfer), Fyn; details: read-out: Fyn-1
T8 construct: Kinases are expressed as either kinase domains or full length constructs; made in house
Procedure, shortened: as §1

Lyn = biological target: T9, Lyn (Homo sapiens, UniProt P07948); experiment: Kinase inhibition assay (33P transfer), Lyn; details: Table 6, Lyn-1 kinase inhibition class
T9 construct: Kinases are expressed as either kinase domains or full length constructs; made in house
Procedure, shortened: as §1

T1 sequence (P04626 23-1255, species assumed): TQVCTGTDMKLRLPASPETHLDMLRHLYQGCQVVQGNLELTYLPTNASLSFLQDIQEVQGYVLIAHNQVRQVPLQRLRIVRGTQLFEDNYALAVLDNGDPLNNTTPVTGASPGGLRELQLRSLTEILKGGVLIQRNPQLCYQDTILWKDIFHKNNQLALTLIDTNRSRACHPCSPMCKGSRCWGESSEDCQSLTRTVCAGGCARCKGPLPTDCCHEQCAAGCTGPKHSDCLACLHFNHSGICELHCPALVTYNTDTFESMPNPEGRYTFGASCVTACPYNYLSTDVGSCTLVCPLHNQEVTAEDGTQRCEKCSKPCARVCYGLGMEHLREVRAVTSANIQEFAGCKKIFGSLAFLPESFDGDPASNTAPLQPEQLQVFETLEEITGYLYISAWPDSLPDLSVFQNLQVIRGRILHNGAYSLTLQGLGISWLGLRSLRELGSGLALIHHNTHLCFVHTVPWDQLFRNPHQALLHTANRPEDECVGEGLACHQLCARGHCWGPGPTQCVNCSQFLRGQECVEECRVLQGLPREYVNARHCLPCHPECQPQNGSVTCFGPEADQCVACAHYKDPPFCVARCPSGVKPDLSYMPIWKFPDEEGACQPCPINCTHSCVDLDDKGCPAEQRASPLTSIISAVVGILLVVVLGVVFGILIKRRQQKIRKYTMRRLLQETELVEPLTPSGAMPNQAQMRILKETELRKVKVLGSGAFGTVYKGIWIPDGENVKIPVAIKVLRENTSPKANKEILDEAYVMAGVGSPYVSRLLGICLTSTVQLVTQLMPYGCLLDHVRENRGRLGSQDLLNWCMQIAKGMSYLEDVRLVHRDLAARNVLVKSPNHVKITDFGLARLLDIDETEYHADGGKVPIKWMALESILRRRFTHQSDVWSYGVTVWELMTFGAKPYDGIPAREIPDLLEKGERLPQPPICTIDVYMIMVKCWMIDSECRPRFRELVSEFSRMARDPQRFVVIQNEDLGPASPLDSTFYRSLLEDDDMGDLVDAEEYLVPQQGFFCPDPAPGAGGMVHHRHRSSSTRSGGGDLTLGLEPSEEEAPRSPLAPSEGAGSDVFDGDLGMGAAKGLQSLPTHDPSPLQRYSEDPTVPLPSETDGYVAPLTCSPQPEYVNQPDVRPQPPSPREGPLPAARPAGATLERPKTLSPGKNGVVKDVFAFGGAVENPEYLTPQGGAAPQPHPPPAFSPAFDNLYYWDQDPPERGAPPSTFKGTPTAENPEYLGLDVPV
T7 sequence (P35968 20-1356, species assumed): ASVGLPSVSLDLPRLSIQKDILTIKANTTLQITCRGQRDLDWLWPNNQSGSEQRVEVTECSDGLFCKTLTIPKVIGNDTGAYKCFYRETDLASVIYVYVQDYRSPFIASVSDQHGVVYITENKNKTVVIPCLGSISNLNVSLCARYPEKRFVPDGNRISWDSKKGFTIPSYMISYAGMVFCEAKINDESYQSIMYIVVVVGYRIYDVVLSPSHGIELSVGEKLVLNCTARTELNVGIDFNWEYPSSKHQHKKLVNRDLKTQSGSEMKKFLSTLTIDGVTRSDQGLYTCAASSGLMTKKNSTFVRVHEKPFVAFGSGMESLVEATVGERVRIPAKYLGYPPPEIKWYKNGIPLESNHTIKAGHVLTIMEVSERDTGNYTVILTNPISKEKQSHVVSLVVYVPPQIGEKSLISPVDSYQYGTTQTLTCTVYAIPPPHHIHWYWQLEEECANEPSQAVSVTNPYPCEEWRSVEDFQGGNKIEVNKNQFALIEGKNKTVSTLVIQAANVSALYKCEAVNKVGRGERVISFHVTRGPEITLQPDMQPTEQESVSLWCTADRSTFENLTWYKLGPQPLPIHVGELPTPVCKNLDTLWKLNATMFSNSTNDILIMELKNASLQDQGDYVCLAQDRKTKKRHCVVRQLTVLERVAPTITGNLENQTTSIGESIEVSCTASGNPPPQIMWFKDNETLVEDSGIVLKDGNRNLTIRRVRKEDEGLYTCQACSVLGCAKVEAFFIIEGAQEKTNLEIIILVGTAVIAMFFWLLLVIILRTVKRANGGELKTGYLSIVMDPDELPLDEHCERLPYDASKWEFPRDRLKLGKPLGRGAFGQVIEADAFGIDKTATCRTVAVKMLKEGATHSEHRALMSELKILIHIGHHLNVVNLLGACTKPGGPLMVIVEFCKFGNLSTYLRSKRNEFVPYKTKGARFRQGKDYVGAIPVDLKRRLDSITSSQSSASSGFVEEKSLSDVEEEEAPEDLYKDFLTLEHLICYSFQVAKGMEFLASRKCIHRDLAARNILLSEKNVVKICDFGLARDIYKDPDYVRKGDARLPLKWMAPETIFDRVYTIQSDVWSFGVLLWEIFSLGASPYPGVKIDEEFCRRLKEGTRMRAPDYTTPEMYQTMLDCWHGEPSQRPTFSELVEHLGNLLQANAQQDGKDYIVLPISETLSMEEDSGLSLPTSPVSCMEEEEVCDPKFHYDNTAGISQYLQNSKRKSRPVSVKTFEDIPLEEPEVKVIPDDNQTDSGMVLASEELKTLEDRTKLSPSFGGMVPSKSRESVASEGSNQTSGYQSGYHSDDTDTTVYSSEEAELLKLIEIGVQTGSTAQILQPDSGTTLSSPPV
T6 sequence (P08069 31-1367): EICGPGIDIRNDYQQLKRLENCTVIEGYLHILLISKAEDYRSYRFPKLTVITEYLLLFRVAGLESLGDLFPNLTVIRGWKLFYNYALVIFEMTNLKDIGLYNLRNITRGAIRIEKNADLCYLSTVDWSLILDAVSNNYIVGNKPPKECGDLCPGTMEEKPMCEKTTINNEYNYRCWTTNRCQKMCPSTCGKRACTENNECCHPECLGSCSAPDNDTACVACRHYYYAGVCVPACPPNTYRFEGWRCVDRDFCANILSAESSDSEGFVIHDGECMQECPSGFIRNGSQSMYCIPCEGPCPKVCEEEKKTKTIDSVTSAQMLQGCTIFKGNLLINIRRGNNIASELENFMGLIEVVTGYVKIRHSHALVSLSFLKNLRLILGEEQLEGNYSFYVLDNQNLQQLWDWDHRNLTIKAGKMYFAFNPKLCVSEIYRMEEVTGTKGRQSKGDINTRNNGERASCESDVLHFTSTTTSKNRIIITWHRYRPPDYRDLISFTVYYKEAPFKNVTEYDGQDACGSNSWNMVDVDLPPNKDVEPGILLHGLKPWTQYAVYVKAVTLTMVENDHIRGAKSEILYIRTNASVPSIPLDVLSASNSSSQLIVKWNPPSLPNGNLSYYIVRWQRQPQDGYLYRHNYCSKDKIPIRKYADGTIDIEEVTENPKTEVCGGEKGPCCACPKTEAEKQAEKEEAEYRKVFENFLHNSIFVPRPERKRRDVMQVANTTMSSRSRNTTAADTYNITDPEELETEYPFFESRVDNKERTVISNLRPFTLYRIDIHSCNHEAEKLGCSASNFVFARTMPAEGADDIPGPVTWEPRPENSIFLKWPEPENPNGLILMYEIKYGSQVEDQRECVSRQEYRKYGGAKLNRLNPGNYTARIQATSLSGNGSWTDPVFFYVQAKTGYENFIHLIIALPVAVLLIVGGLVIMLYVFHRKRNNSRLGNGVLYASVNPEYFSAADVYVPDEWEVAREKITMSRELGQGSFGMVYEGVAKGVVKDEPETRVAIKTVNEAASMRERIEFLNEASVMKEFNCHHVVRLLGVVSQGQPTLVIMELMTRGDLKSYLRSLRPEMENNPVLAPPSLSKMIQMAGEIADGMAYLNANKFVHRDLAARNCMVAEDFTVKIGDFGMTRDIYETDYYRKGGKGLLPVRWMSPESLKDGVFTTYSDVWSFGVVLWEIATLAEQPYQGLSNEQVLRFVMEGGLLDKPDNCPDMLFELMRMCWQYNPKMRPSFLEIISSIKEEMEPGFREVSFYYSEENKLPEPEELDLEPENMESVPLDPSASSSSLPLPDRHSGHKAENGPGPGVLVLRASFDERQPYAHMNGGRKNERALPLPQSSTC
T8 sequence (P06241 whole entry, species assumed, the tested form may be a part): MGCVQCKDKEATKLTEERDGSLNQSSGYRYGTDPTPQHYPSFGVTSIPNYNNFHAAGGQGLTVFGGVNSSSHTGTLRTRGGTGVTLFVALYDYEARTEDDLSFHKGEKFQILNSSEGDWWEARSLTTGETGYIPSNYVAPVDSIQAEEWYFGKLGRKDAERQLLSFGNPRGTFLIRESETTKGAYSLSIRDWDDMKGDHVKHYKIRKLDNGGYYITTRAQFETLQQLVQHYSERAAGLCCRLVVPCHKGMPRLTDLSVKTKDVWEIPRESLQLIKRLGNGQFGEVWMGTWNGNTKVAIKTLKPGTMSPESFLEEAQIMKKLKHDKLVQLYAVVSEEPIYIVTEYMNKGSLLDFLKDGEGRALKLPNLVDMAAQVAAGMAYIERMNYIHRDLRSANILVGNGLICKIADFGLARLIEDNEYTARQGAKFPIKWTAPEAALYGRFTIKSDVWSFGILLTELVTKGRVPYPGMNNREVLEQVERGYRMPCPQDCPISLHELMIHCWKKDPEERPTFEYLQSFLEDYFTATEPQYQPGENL
T9 sequence (P07948 whole entry, species assumed, the tested form may be a part): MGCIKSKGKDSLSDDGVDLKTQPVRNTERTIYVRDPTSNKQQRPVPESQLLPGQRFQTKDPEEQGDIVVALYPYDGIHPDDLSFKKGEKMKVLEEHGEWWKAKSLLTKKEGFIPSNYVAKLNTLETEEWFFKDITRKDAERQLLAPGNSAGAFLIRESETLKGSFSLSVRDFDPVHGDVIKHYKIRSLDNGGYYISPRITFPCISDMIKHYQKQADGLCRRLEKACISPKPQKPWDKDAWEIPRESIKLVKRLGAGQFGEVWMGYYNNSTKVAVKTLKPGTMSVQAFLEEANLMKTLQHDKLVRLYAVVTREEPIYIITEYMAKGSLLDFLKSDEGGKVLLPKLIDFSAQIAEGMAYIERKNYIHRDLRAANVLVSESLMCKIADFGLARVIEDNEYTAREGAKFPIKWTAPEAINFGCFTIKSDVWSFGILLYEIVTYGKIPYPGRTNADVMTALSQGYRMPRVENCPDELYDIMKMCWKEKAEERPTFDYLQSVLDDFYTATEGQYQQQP

SMILES	IC50 (ErbB2)	IC50 (Zap-70)	IC50 (Itk)	IC50 (ErbB4)	IC50 (Ret-1)	IC50 (IGFR-1)	IC50 (Kdr)	IC50 (Fyn)	IC50 (Lyn)
COc1cc(Nc2ncnc(-n3c(N)nc4ccccc43)n2)cc(OC)c1OC [Compound 289]	> 11.4 µM	> 11.4 µM	1.02 to 6.1 µM	> 11.4 µM	1.02 to 6.1 µM	< 1.02 µM	< 1.02 µM	1.02 to 6.1 µM	6.1 to 8.9 µM
COc1cc(Nc2ncnc(Nc3ccc(C)c(O)c3)n2)cc(OC)c1OC [Compound 83]	< 1.04 µM	> 11.7 µM	1.04 to 6.26 µM	1.04 to 6.26 µM	< 1.04 µM	1.04 to 6.26 µM	< 1.04 µM	< 1.04 µM	< 1.04 µM
COc1cc(Nc2ncnc(Nc3ccc4[nH]ccc4c3)n2)cc(OC)c1OC [Compound 928]	< 1.02 µM	> 11.5 µM	6.12 to 8.92 µM	1.02 to 6.12 µM	< 1.02 µM	< 1.02 µM	< 1.02 µM	> 11.5 µM	< 1.02 µM
NC(=O)c1ccc(Nc2ncnc(Nc3cc(-c4ccco4)n[nH]3)n2)cc1 [Compound 341]	–	> 12.4 µM	6.62 to 9.66 µM	> 12.4 µM	< 1.1 µM	1.1 to 6.62 µM	< 1.1 µM	> 12.4 µM	> 12.4 µM
O=C1OCc2ccc(Nc3ncnc(Nc4cc(-c5ccco5)n[nH]4)n3)cc21 [Compound 364]	–	> 12 µM	6.39 to 9.32 µM	> 12 µM	1.07 to 6.39 µM	1.07 to 6.39 µM	< 1.07 µM	> 12 µM	9.32 to 12 µM

Continued, values first:

IC50 (ErbB2)	IC50 (Zap-70)	IC50 (Itk)	IC50 (ErbB4)	IC50 (Ret-1)	IC50 (IGFR-1)	IC50 (Kdr)	IC50 (Fyn)	IC50 (Lyn)	SMILES
0.954 to 5.72 µM	> 10.7 µM	0.954 to 5.72 µM	< 0.954 µM	0.954 to 5.72 µM	< 0.954 µM	< 0.954 µM	< 0.954 µM	< 0.954 µM	COc1cc(Nc2ncnc(Nc3cc(-c4ccccc4)n[nH]3)n2)cc(OC)c1OC [Compound 102]
< 0.991 µM	> 11.2 µM	> 11.2 µM	> 11.2 µM	> 11.2 µM	> 11.2 µM	< 0.991 µM	0.991 to 5.95 µM	0.991 to 5.95 µM	COc1cc(Nc2ncnc(Nc3cccc4ccccc34)n2)cc(OC)c1OC [Compound 98]
1.09 to 6.53 µM	9.53 to 12.2 µM	> 12.2 µM	> 12.2 µM	> 12.2 µM	< 1.09 µM	1.09 to 6.53 µM	1.09 to 6.53 µM	< 1.09 µM	COc1cc(Nc2ncnc(Nc3cccc(C)c3)n2)cc(OC)c1OC [Compound 64]
6.05 to 8.83 µM	8.83 to 11.4 µM	> 11.4 µM	> 11.4 µM	6.05 to 8.83 µM	< 1.01 µM	6.05 to 8.83 µM	> 11.4 µM	> 11.4 µM	COc1cc(Nc2ncnc(NC(=O)Nc3ccccc3)n2)cc(OC)c1OC [Compound 852]
< 1.04 µM	9.13 to 11.7 µM	> 11.7 µM	9.13 to 11.7 µM	1.04 to 6.26 µM	< 1.04 µM	1.04 to 6.26 µM	1.04 to 6.26 µM	1.04 to 6.26 µM	COc1cccc(Nc2ncnc(Nc3cc(OC)c(OC)c(OC)c3)n2)c1 [Compound 87]
> 11.1 µM	> 11.1 µM	> 11.1 µM	> 11.1 µM	0.989 to 5.93 µM	> 11.1 µM	< 0.989 µM	5.93 to 8.65 µM	0.989 to 5.93 µM	COc1cc(Nc2ncnc(Nc3cccc4cccnc34)n2)cc(OC)c1OC [Compound 97]
0.968 to 5.81 µM	> 10.9 µM	> 10.9 µM	0.968 to 5.81 µM	0.968 to 5.81 µM	< 0.968 µM	< 0.968 µM	8.47 to 10.9 µM	> 10.9 µM	COc1cc(Nc2ncnc(Nc3cc(OC)c(OC)c(OC)c3)n2)cc(OC)c1 [Compound 86]
